Laboratory results taken from patent US20060147411A1, “Novel compounds for the treatment of sickle cell disease” (University of Maryland, Baltimore, priority 2003, published 2006).

How the values were obtained:
cytochrome b5 [1] = conditions: read-out: affinity of binding to cytochrome b5; cited from earlier work
cytochrome b5 [2] = biological target: cytochrome b5 (Rattus norvegicus, UniProt P00173); assay: HSQC perturbation mapping: concentration dependence of hexacyclen-induced heteronuclear correlation peak shifts; format: binding; conditions: 1H-15N HSQC peak shifts, hexacyclen 0.5 to 8 mM, pH 7.0, 1 mM phosphate buffer, 40° C; read-out: dissociation constant
cytochrome b5 (Rattus norvegicus, UniProt P00173), sequence (P00173 whole entry): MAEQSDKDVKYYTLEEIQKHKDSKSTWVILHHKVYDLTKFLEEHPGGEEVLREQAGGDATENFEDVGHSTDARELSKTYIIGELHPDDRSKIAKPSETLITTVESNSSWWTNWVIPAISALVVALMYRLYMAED
Description: Hexacyclen (1,4,7,10,13,16-hexaazacyclooctadecane)(Richman, J. E.; Atkins, T. J. 1974, J. Am. Chem. Soc., 96, 2268-2269) binds to cytochrome b5 such the HSQC spectra of cytochrome b5-hexacyclen is similar to the HSQC spectra of cytochrome b5-hemoglobin. The concentration dependence of hexacyclen-induced heteronuclear correlation peak shifts indicates a dissociation constant of roughly 2 mM. FIG. 2 illustrates the heteronuclear correlation spectra (HSQC spectra) of a 2 mM solution of cytochrome b5 by itself (black contours) and that of a solution containing 2 mM cytochrome b5 and 4 mM hexacyclen (gray contours). The inset in the upper left hand corner of the figure contains a plot of the hexacyclen dependence of the shifts in the peak to peak separation of aspartate 60 (D60) at concentrations of hexacylen ranging from 0.5 to 8 mM. The inset at the upper right is a model for the interaction of hexacyclen based on the shifts observed in the HSQC perturbation study. Solutions were buffered to a pH of 7.0 with 1 mM phosphate buffer and the spectra were recorded at 40° C. […]
The binding of the R1 and R3 moieties to cytochrome b5 is characterized using HSQC perturbation mapping experiments. […] Solutions were buffered to a pH of 7.0 with 1 mM phosphate buffer and the spectra were recorded at 40° C. […]

sickle cell patients = conditions: nearly 300 sickle cell patients; cited from earlier work

SMILES: Nc1ncnc2c1ncn2[C@H]1O[C@@H](COP(=O)(O)OP(=O)(O)OP(=O)(O)O)C(O)C1O (stereo partly drawn) [ATP, Adenosine 5′-triphosphate]
- Kd (cytochrome b5 [1]): 0.18 mM

SMILES: C1CNCCNCCNCCNCCNCCN1 [Hexacyclen, 1,4,7,10,13,16-hexaazacyclooctadecane]
- Kd (cytochrome b5 [2]): ~2 mM

SMILES: NC(=O)NO [hydroxyurea]
- occurrence of vaso-occlusive crises, reduced to % of that observed (sickle cell patients): roughly 50%
